Legend:
[1] = test system: fungi; assay: antifungal efficacy of formulated phenolics; settings: formulated per invention vs conventional
Text: The antifungal efficacy of these phenolics is improved by formulation in accordance with this invention.

[2] = test system: Athlete's Foot; assay: Athlete's Foot treatment; type: in vivo, human; settings: one case; Toluaftate 1% twice daily for eight days
Text: The second formulation in the preceding Example was applied once daily by eight test subjects to the skin between the toes for control of "Athlete's Foot". […] Two of the cases had previously resisted control with several over-the-counter brand name antifungals. One of the two, a virulent infection, had reached the bleeding stage from deeply cracked skin and a bacterial infection started, despite twice daily application for eight days of a 1% solution of Toluaftate which has gained broad recognition for effective control of "Athlete's Foot".

[3] = test system: rice spot (Helminthosporium orazae and Cerocospora orazae); type: in vivo; settings: 33 ppm active; 0 no pathogen control to 10 complete
[4] = test system: bean rust (Uromyces phaseoli typica); assay: foliar spray on beans; type: in vivo; settings: 33 ppm active; 0 no pathogen control to 10 complete
Text: (§1) The composition of Example 23 was screened for fungal pathogen response as a foliar spray on beans and rice. The rating scale is from 0 (no pathogen control) to 10 (complete pathogen control). The concentration of active ingredient (in a water carrier) of all compositions tested is 33 parts per million (ppm). The active ingredient in the composition of Example […] is expressed in terms of Cu-8-Q and the chemical as listed below for four comparative products. The comparative products tested were Karathane (2,4-dimitro-6-(2-octyl phenyl crotonate), Vitavax (5,6-dihydro-2-methyl-1,4-oxathiin-3-carboxanilide), Daconil (tetrachloroisophthalonitrile) and Maneb (manganese ethylenebisdithiocarbamate). The plants and diseases tested were bean mildew (Erysiphe polygoni), bean rust (Uromyces phaseoli typica) and rice spot (Helminthosporium orazae and Cerocospora orazae).
(§2) The rating scale is from 0 (no pathogen control) to 10 (complete pathegon control). The concentration of active ingredient (in a water carrier) of all compositions tested is 33 parts per million (ppm). The active ingredient in the composition of Example 4 is expressed in terms of Cu-8-Q and the chemical as listed below for four comparative products. […]

[5] = test system: Ceratocystis pilifera; assay: sugar cane pineapple disease emergence test; type: in vivo; settings: 56 days
Method: The following composition was prepared and evaluated for control of pineapple disease of sugar cane (Ceratocystis pilifera):
Sugar cane seed was treated with this solution as diluted with a water carrier. Seed also was treated with benomyl, thiophanate methyl, Panoctine (9-aza-1,17-diquanidinoheptadecane triacetate), hot water and cold water. The results are tabulated below:
(2) Prior to planting, the seed was inoculated with the causal disease
organism, Ceratocystis pilifera. Emergence data was collected 56 days

[6] = test system: bean mildew (Erysiphe polygoni); assay: foliar spray on beans; type: in vivo; settings: 33 ppm active; 0 no pathogen control to 10 complete
Text: as §1, §2

[7] = test system: human skin; assay: skin irritation on human subjects; type: in vivo; settings: undiluted on hands
Method: These compositions were tested for skin irritation by rubbing 2 ml of each onto the hands of six test subjects. After 60 seconds, Compositions A, B and C were rinsed off the hands with water. […] The results with Compositions D and E were observably different.
The two compositions were tested for skin irritation by placing two drops of one composition on the skin at the inside of one elbow of five test subjects and two drops of the other composition on the same spot on the other elbow of each subject. In all cases, the composition was smeared over about a one-half square inch of skin and the subjects' reactions were noted over a 20-minute test period.
The compositions were tested on three subjects for skin irritation by spreading two drops of each composition over a one square inch area of skin just below one eye of each test subject and the other composition on the same spot beneath the other eye.

[8] = test system: Aspergillis terreus (ATCC 10609); assay: minimum fungicidal concentration; type: cell-based; settings: ppm of active ingredient; "1" means 1 or fewer
[9] = test system: Lenzites trabea (ATCC 11539); assay: minimum fungicidal concentration; type: cell-based; settings: ppm of active ingredient; "1" means 1 or fewer
[10] = test system: Candida albicans (ATCC 10259); assay: minimum fungicidal concentration; type: cell-based; settings: ppm of active ingredient; "1" means 1 or fewer
[11] = test system: Penicillium brevi compactum (ATCC 16024); settings: ppm of active ingredient; "1" means 1 or fewer
[12] = test system: Trichoderma viride (ATCC 8678); settings: ppm of active ingredient; "1" means 1 or fewer
[13] = test system: rice seedling emergence; type: in vivo
[14] = test system: P. aeruginosa; settings: reference tests and manufacturer's literature; cited from earlier work
[15] = test system: fungal stain and mold growth; assay: fungal stain and mold growth on dip-treated fresh-cut pine boards; settings: 28 days
Method: In the examples that follow, the effectiveness of the various formulations was determined by treating freshly cut pine boards by dip immersion for 10 seconds in the formulation to be tested. The boards, along with an untreated control, were placed in a chamber for the period of time indicated and maintained at a temperature of about 80° F. and a humidity of about 70%.
At the end of the test period, the boards were removed from the chamber and rated for effectiveness in terms of percentage of total surface area covered by fungal stain and mold growth. Accordingly, the lower the percentage, the higher the effectiveness of the test formulation. […]
As further evidence of the effectiveness of antimicrobials prepared in accordance with this invention, a number of tests were conducted utilizing DDBSA as the disubstituted aryl compound of this invention as a solution with the below-listed microbicidal agents. […] Fresh-cut green pine test boards were dip-treated and evaluated for stain and mold after 30 days in the aforementioned constant atmosphere test chamber:
These compositions were diluted 1:200 with a water carrier for use, and freshly cut pine boards were dip immersed in the formulation to be tested. […] After the test period, the specimen boards were evaluated in terms of percentage of total surface area covered by fungal stain and mold growth.

Q: With Oc1cc(Cl)cc(Cl)c1Cl [2,3,5-trichlorophenol] as the compound, how does the antifungal efficacy improvement [1] read?
A: The antifungal efficacy improvement was “significantly higher than would be expected”.

Q: Which “control of resistant Athlete's Foot and bacterial infection” value [2] does the source give for Cc1cccc(N(C)C(=S)Oc2ccc3ccccc3c2)c1 [Toluaftate] here?
A: Its value is “failed to control”.

Q: Which “Rice Spot rating” value [3] does the source give for N#Cc1c(Cl)c(Cl)c(Cl)c(C#N)c1Cl [Daconil, tetrachloroisophthalonitrile] here?
A: Its value is 10.

Q: With CC1=C(C(=O)Nc2ccccc2)SCCO1 [Vitavax, 5,6-dihydro-2-methyl-1,4-oxathiin-3-carboxanilide] as the compound, how does the “Bean Rust rating” value [4] read?
A: Its value is 9.

Q: Which “% Emergency, Inoculated” value ([5]; 50 ppm active) does the source give for COC(=O)NC(=S)Nc1ccccc1NC(=S)NC(=O)OC [Thiophanate methyl, thiophanate methyl] here?
A: Its value is 55%.

Q: What about the “% Emergency, Inoculated” value ([5]; 150 ppm active) of the same compound?
A: The value was 51%.

Q: What about the “% Emergency, Inoculated” value ([5]; 300 ppm active) of the same compound?
A: Its value is 49%.

Q: Which antifungal efficacy improvement [1] does the source give for Oc1ccccc1-c1ccccc1 [Orthophenyl phenol] here?
A: Its antifungal efficacy improvement is “significantly higher than would be expected”.

Q: With CC=CC(=O)Oc1c(C(C)CCCCCC)cc([N+](=O)[O-])cc1[N+](=O)[O-] (stereo not drawn) [Karathane, 2,4-dimitro-6-(2-octylphenyl crotonate] as the compound, how does the “Bean Mildew rating” value [6] read?
A: The value was 10.

Q: Which “% Emergency, Inoculated” value ([5]; 50 ppm active) does the source give for N=C(N)NCCCCCCCCNCCCCCCCCNC(=N)N [Panoctine, 9-aza-1,17-diquanidinoheptadecane triacetate] here?
A: The value was 48%.

Q: What about the “% Emergency, Inoculated” value ([5]; 100 ppm active) of the same compound?
A: The value was 48%.

Q: And the “% Emergency, Inoculated” value ([5]; 200 ppm active)?
A: Its value is 53%.

Q: For tetrachlorophenol, which antifungal efficacy improvement [1] is on record?
A: Its antifungal efficacy improvement is “significantly higher than would be expected”.

Q: For Oc1c(Cl)c(Cl)c(Cl)c(Cl)c1Cl [pentachlorophenol], which antifungal efficacy improvement [1] is on record?
A: The antifungal efficacy improvement was “significantly higher than would be expected”.

Q: Which results are given for CCCCCCCCCCCCc1ccc(S(=O)(=O)O)cc1 [DDBSA, dodecyl benzene sulfonic acid]?
A: skin sensation [7]: almost immediate warm and uncomfortable sensation; Minimum Fungicidal Concentration [8]: 100 ppm; Minimum Fungicidal Concentration [9]: 100 ppm; Minimum Fungicidal Concentration [10]: 1,000 ppm; Minimum Fungicidal Concentration [11]: 100 ppm; Minimum Fungicidal Concentration [12]: 100 ppm

Q: Which “Improvement over Control” value ([13]; 4 ounces/cwt, thirteen test plots) does the source give for CC1=C(C(=O)Nc2ccccc2)SCCO1 [PRODUCT D, 5,6dihydro-2-methyl-1,4-oxathiim-3-carboxanilide] here?
A: Its value is 12.3%.

Q: And the “Performance Consistency” value ([13]; in vivo)?
A: Its value is 71.3.

Q: With “manganese ethylenebisdithiocarbamate [Maneb]” as the compound, how does the “Rice Spot rating” value [3] read?
A: The value was 8.

Q: For Oc1ccc(Cl)cc1-c1ccccc1 [4-chloro-2-phenyl phenol], which phenol coefficient [14] is on record?
A: The phenol coefficient was “less than 10”.

Q: For CCCCNC(=O)n1c(NC(=O)OC)nc2ccccc21 [Benomyl, benomyl], which “% Emergency, Inoculated” value ([5]; 150 ppm active) is on record?
A: Its value is 50%.

Q: For OB(O)O [Orthoboric acid], which “% Stain and Mold” value ([15]; 0.25% in water) is on record?
A: The value was 86%.

Q: And the “% Stain and Mold” value ([15]; 0.50% in water)?
A: Its value is 62%.

— US4602011A, “Antimicrobial compositions and methods of using same” (Chapman Chemical Company, priority 1982, dated 1986)
